From patent US20200016155A1, “COMPOSITIONS AND TREATMENT OF HEART DEFICIENCY IN NON-HUMAN ANIMALS” (CEVA SANTE ANIMALE, priority 2007, published 2020)
Read-outs that look alike come from different tables or passages of the source.

Columns and labels:
[1] = Pharmacokinetic study with 22-14C spironolactone, monkey; assay type: in vivo; conditions: monkeys, after 4 hour oral administration
[2] = system: aldosterone effect on log([Na+]urinary×10/[K+]urinary); assay: Anti-aldosterone activity model (Hofman): urinary log([Na+]x10/[K+]) in dogs given aldosterone; assay type: in vivo, dog; conditions: for inhibition of the effect of aldosterone on log ([Na+]urinary×10/[K+]urinary): first 6 hours and 12 hours after dosage
Protocol: The model for assessing the anti-aldosterone activity as described by Hofman L. M et al. (1975, The Journal of Pharmacology and Experimental Therapeutics. 194, 450-456) was used. […] A preliminary study was performed in order to determining the ED80 value for the natriuretic effect of aldosterone on its own. […] An elimination period of at least 48 hours was left between each administration.
The dogs described above were allocated to different treatment groups (A, B, C, D, and E) and a rest period was left between treatments.
A negative control group A only received the pharmaceutical excipient. The positive control group B only received 3 μg/kg of aldosterone. […] 200 g food was then given immediately after treatment.
The tubes were centrifuged rapidly at 1500 rpm for 10 minutes (at a temperature of +4° C.±2° C.), and the plasma was distributed in two propylene tubes (1.2 mL). The samples were frozen and kept in the dark at approx. −80° C. On the day of the fest, the bladders of the animals were emptied by catherisation, then 6 and 24 hours after treatment. Also, the urine was collected during the time periods ranging from T0-T6h; T6h-T12h and T12h-T24h.
The sodium and potassium contents in urines were determined using […]. […] According to this method 500 μL plasma were mixed with ethyl acetate (80/20,V/V) as solvents. […] The compounds and the internal standard (i.e. methyl-testosterone) were separated on a Kromasil C18 column. The quantification levels were 10 μg/L for all compounds within +/−14% variation.
E0, Elog ({Na+)urinary×10/[K+}) max dose and ED50 were obtained by nonlinear regression, and n is the Hill coefficient describing the dose effect relation.

[3] = Plasmatic potassium (kaliemia) measurements during the clinical studies; assay type: in vivo, dog
Protocol: The plasmatic potassium concentrations (mmol/L) were measured during the treatments. […] Only sporadic case of low or moderate hyperkaliemia could be observed and these events were transient. Indeed, these hyperkaliemia events could only be observed a couple of times during examinations, and some of them were present on day D1, before the beginning of the treatment.

[4] = system: human patient; conditions: cited from earlier work
[5] = system: patients affected by severe heart failure; conditions: 25 mg spironolactone with CEI, ansa diuretics, sometimes digoxin; 822 patients; cited from earlier work
[6] = Pharmacokinetic study with 22-14C spironolactone, rat; assay type: in vivo; conditions: rats, after 4 hour oral administration
[7] = system: dogs affected by heart failure; assay: Multicentre randomised double-blind placebo-controlled clinical studies in dogs affected by heart failure; assay type: in vivo, dog; conditions: group of dogs on spironolactone
Protocol: Multicentre, randomised, double-blind placebo-controlled clinical studies were conducted.
For gauging the effects of the treatment, both groups were examined five times, i.e., on the first day of treatment (D1), then on the 84th day (D84), […], 252nd day (D252) and 336th day (D336). This examination consisted of a clinical examination of the dogs, urine and blood analyses, and a radiograph. Moreover, an echocardiograph was taken on days D1, D168 and D336.
Also, the effects of the treatment were assessed on the symptoms such as cough and mobility, as well as on the prevention of symptoms such as dyspnoea, pulmonary edema, and tolerance to effort.

[8] = Pharmacokinetic study with 22-14C spironolactone, dog; assay type: in vivo; conditions: dogs, after 4 hour oral administration

## CC(=O)S[C@@H]1CC2=CC(=O)CC[C@]2(C)[C@H]2CC[C@@]3(C)[C@@H](CC[C@@]34CCC(=O)O4)[C@H]12 [spironolactone, 7α-acetylthio-3-oxo-17α-pregn-4-ene-21,17-carbolactone]
[1]
  plasma radioactivity percentage: 33%
[2]; 0.8 mg/kg
  natriuretic responses: no effect on certain dogs
[2]; 2 mg/kg
  natriuretic responses: completely reversed
  inhibition of the effect of aldosterone on log ([Na+]urinary×10/[K+]urinary): complete reversal of the effect
[2]; 8 mg/kg
  natriuretic responses: other increases in the elimination of Na were observed
  inhibition of the effect of aldosterone on log ([Na+]urinary×10/[K+]urinary): complete reversal of the effect
[2]; dose 0.8 mg/kg
  E(0.8 mg/kg)−E0: 0.3233
  restoring of the effect: 57%
[2]; dose approx. 2 mg/kg
  E(2 mg/kg): 0.4933
  restoring of the effect: 88%
[2]; urine collected 0 to 6 hours after administration of spironolactone, from 0.70±0.22
  log ([Na+]urinary×10/[K+]urinary), average: 1.14±0.18
[3]; 2 mg/kg/day, dogs
  variation in kaliemia: did not cause any variation in kaliemia or only low transient variations in kaliemia
[3]; 2-month clinical study (4 analyses)
  Low and transient hyperkaliemia (5.9 to 6.4 mmol/L), cases: 3
[3]; 3-month clinical study (6 analyses)
  Low and transient hyperkaliemia (5.9 to 6.4 mmol/L), cases: 5
[3]; 12-month clinical study (5 analyses)
  Low and transient hyperkaliemia (5.9 to 6.4 mmol/L), cases: 3
[3]; FIG. 9, spironolactone 2 mg/kg/day + CEI
  progression of average plasmatic potassium (kaliemia): stable kaliemia
[4]; 12.5 mg/day
  Therapeutic effect in human: Significant reduction in morbidity/
[4]; 25 mg/day
  Therapeutic effect in human: Significant reduction in morbidity/
[4]; 50 mg/day
  Therapeutic effect in human: Significant reduction in morbidity/
[4]; 75 mg/day
  Therapeutic effect in human: Significant reduction in morbidity/
[5]
  dead in the spironolactone group, percentage: 35%
  number of dead in the spironolactone group: 284
[6]
  plasma radioactivity percentage: 66%
[7]
  clinical symptoms: improved symptoms such as cough and mobility
[8]
  plasma radioactivity percentage: 76%

## C[C@]12CCC(=O)C=C1CC[C@@H]1[C@@H]2[C@@H](O)C[C@]2(C=O)[C@@H](C(=O)CO)CC[C@@H]12 [aldosterone]
[2]; basic effect after aldosterone on its own (positive control), 0 to 6 hours
  E0 (control group): 0.527
